PubChem BioAssay (NCI)
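GI50 = concentration required for 50% inhibition of growth. TGI denotes the concentration required for complete inhibition of growth.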

Experiments:
Assay in all cases: NCI anticancer screen, dose series, 384-well format
[1] = system: A498 renal
[2] = system: A549 NSCLC
[3] = system: ACHN renal
[4] = system: BT-549 breast
[5] = system: CAKI-1 renal
[6] = system: COLO 205 colon
[7] = system: DU-145 prostate
[8] = system: EKVX NSCLC
[9] = system: HCC-2998 colon
[10] = system: HCT-116 colon
[11] = system: HCT-15 colon
[12] = system: HL-60(TB) leukemia
[13] = system: HOP-62 NSCLC
[14] = system: HOP-92 NSCLC
[15] = system: HS 578T breast
[16] = system: HT29 colon
[17] = system: IGROV1 ovarian
[18] = system: KM12 colon
[19] = system: LOX IMVI melanoma
[20] = system: M14 melanoma
[21] = system: MALME-3M melanoma
[22] = system: MCF7 breast
[23] = system: MDA-MB-231 breast
[24] = system: MDA-MB-435 melanoma
[25] = system: MDA-MB-468 breast
[26] = system: MOLT-4 leukemia
[27] = system: NCI-H226 lung
[28] = system: NCI-H23 lung
[29] = system: NCI-H322M lung
[30] = system: NCI-H460 NSCLC
[31] = system: NCI-H522 lung
[32] = system: NCI/ADR-RES ovarian
[33] = system: OVCAR-3 ovarian
[34] = system: OVCAR-4 ovarian
[35] = system: OVCAR-5 ovarian
[36] = system: OVCAR-8 ovarian
[37] = system: PC-3 prostate
[38] = system: RPMI-8226 leukemia
[39] = system: RXF 393 renal
[40] = system: SF-268 CNS
[41] = system: SF-295 CNS
[42] = system: SF-539 CNS
[43] = system: SK-MEL-28 melanoma
[44] = system: SK-MEL-5 melanoma
[45] = system: SK-OV-3 ovarian
[46] = system: SN12C renal
[47] = system: SNB-19 CNS
[48] = system: SNB-75 CNS
[49] = system: SR leukemia
[50] = system: T-47D breast
[51] = system: TK-10 renal
[52] = system: U251 glioblastoma
[53] = system: UACC-257 melanoma
[54] = system: UACC-62 melanoma

`CN(C)Cc1c(C(=O)NCCOc2ccc(C(=O)NO)cc2)oc2ccccc12` showed a GI50 [1] of 187 nM, a TGI [1] of 658 nM and a GI50 [2] of 313 nM. For the same compound, the TGI [2] was 1240 nM, the GI50 [3] was 221 nM and the TGI [3] was 578 nM. For the same compound, the GI50 [4] was 264 nM, the TGI [4] was 1350 nM and the GI50 [5] was 316 nM. For the same compound, the TGI [5] was 1100 nM, the GI50 [6] was 158 nM and the TGI [6] was 319 nM. The GI50 [7] was 118 nM, the TGI [7] was 320 nM and the GI50 [8] was 403 nM. It also gave a TGI [8] of 3110 nM, a GI50 [9] of 109 nM and a TGI [9] of 362 nM. The GI50 [10] was 92.3 nM, the TGI [10] was 479 nM and the GI50 [11] was 480 nM. It also gave a TGI [11] of 2010 nM, a GI50 [12] of 56.9 nM and a TGI [12] of 148 nM. The GI50 [13] was 170 nM, the TGI [13] was 690 nM and the GI50 [14] was 310 nM. It also gave a TGI [14] of 1330 nM, a GI50 [15] of 145 nM and a TGI [15] of 385 nM. The GI50 [16] was 219 nM, the TGI [16] was 943 nM and the GI50 [17] was 111 nM. The TGI [17] was 324 nM, the GI50 [18] was 311 nM and the TGI [18] was 1700 nM. The GI50 [19] was 170 nM, the TGI [19] was 320 nM and the GI50 [20] was 250 nM. The TGI [20] was 1080 nM, the GI50 [21] was 87.6 nM and the TGI [21] was 330 nM. It also gave a GI50 [22] of 133 nM, a TGI [22] of 510 nM and a GI50 [23] of 248 nM. For the same compound, the TGI [23] was 811 nM, the GI50 [24] was 201 nM and the TGI [24] was 401 nM. For the same compound, the GI50 [25] was 130 nM, the TGI [25] was 457 nM and the GI50 [26] was 42.2 nM. The TGI [26] was 143 nM, the GI50 [27] was 376 nM and the TGI [27] was 1600 nM. For the same compound, the GI50 [28] was 267 nM, the TGI [28] was 1370 nM and the GI50 [29] was 180 nM. The TGI [29] was 713 nM, the GI50 [30] was 135 nM and the TGI [30] was 1040 nM. For the same compound, the GI50 [31] was 71.3 nM, the TGI [31] was 571 nM and the GI50 [32] was 387 nM. The TGI [32] was 1840 nM, the GI50 [33] was 176 nM and the TGI [33] was 626 nM. The GI50 [34] was 213 nM, the TGI [34] was 495 nM and the GI50 [35] was 57.7 nM. For the same compound, the TGI [35] was 212 nM, the GI50 [36] was 46.9 nM and the TGI [36] was 1130 nM. For the same compound, the GI50 [37] was 165 nM, the TGI [37] was 439 nM and the GI50 [38] was 11.9 nM. The TGI [38] was 26.2 nM, the GI50 [39] was 291 nM and the TGI [39] was 1130 nM. The GI50 [40] was 197 nM, the TGI [40] was 604 nM and the GI50 [41] was 161 nM. It also gave a TGI [41] of 335 nM, a GI50 [42] of 285 nM and a TGI [42] of 2100 nM. The GI50 [43] was 171 nM, the TGI [43] was 561 nM and the GI50 [44] was 132 nM. For the same compound, the TGI [44] was 278 nM, the GI50 [45] was 175 nM and the TGI [45] was 745 nM. The GI50 [46] was 130 nM, the TGI [46] was 392 nM and the GI50 [47] was 322 nM. The TGI [47] was 1120 nM, the GI50 [48] was 310 nM and the TGI [48] was 2820 nM. For the same compound, the GI50 [49] was 31.7 nM, the TGI [49] was 136 nM and the GI50 [50] was 136 nM. For the same compound, the TGI [50] was 300 nM, the GI50 [51] was 184 nM and the TGI [51] was 475 nM. It also gave a GI50 [52] of 155 nM, a TGI [52] of 332 nM and a GI50 [53] of 43.2 nM. It also gave a TGI [53] of 194 nM, a GI50 [54] of 112 nM and a TGI [54] of 256 nM.
